Measured values as given in US20060094786A1, “Treating syndrome X with substituted tetralins and indanes” (priority 2002, published 2006).
pEC50: −log10 of the molar value.

How the values were obtained:
PPARγ = target: T1, PPARγ (Homo sapiens, UniProt P37231); test: aP2 Assay for PPAR Gamma Agonists (bDNA aP2 mRNA, preadipocytes); format: cell-based; conditions: bracketed values
T1 construct: Following the challenge of the preadipocytes, cells may be lysed with lysis buffer; endogenous in cells; host or cells: preadipocytes
T1 sequence (P37231 1-505): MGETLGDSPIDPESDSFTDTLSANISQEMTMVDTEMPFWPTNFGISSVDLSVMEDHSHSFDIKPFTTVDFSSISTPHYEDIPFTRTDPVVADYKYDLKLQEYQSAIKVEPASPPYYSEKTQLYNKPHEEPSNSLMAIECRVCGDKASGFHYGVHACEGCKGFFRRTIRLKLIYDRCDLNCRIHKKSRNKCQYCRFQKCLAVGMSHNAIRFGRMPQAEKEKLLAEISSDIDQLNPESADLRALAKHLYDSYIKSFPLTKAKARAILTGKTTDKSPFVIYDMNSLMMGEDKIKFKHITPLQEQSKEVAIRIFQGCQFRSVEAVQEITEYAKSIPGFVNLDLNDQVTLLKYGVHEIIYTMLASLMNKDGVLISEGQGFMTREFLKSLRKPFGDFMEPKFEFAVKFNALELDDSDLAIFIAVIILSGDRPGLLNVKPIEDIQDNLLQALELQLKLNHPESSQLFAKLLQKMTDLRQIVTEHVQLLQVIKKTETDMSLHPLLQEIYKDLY
Description: aP2 Assay for PPAR Gamma Agonists
The procedure is described in detail in Burris et al., Molecular Endocrinology 1999, 13:410, which is hereby incorporated by reference in its entirety, and aP2 assay results of agonist intrinsic activity may be presented as fold increase over vehicle in induction of aP2 mRNA production.
Twenty-four hours after the initial seeding of the 96-well plates by hand (around 20,000/well), the differentiation assay may be initiated. Medium may be removed and replaced with 150 μl of differentiation medium containing vehicle (DMSO) or test compounds. Cells may be returned to incubator for 24 hours culture. At the termination of the challenge, medium may be removed and 100 ul of lysis buffer may be added to initiate the bDNA aP2 mRNA assay. The branched DNA assay may be performed according to the manufacturer's protocol (Bayer Diagnostics; Emeryville, Calif.). Result may be expressed as the fold increase of aP2 mRNA production activated over vehicle controls. EC50's and Emax may be determined by non-linear regression with a sigmoidal fit curve.
Following the challenge of the preadipocytes, cells may be lysed with lysis buffer (Bayer Diagnostics) containing the aP2 oligonucleotides. After a 15 minute incubation at 53° C. or 30 minutes at 37° C. incubator, 70 ul of the lysis buffer from each well may be added to a corresponding capture well (preincubated with 70 ul of blocking buffer (Bayer Diagnostics)). The capture plate may be incubated overnight at 53° C. in a plate incubator (Bayer Diagnostics). After this incubation, the bDNA and labeled probes may be annealed as directed by the manufacturer. Following a 30-minute incubation with the luminescent alkaline phosphatase substrate, dioxitane, the luminescence may be quantitated in a Dynex MLX microtiter plate luminometer. Oligonucleotide probes designed to anneal to the aP2 mRNA and function in the bDNA mRNA detection system are designed with ProbeDesigner software (Bayer Diagnostics). This software package analyzes a target sequence of interest with a series of algorithms in order to determine which regions of the sequence can perform as locations for capture, label, or spacer probe annealing. The sequences of the oligonucleotides are as follows: […]

PPARα = target: T2, PPARα (Rattus norvegicus, UniProt P37230); test: HD bDNA Assay (HD gene induction, H4IIE rat hepatoma cell line); format: cell-based; conditions: assay not named, values equal the PPARα column
T2 construct: H4IIE rat hepatoma cell line was obtained from ATCC; host or cells: H4IIE rat hepatoma cells
T2 sequence (P37230 1-468): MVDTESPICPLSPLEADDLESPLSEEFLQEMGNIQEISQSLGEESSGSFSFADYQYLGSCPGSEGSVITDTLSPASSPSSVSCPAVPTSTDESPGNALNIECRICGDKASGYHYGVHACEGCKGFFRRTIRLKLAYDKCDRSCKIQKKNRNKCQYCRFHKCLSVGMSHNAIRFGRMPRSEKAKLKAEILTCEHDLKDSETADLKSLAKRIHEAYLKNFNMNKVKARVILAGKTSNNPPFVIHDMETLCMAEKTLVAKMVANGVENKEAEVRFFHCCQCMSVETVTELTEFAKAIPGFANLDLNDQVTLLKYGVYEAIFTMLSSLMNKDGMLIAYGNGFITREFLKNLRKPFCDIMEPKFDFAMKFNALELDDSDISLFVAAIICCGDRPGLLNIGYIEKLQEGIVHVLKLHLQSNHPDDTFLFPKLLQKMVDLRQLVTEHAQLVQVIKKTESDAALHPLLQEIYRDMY
Protocol: H4IIE rat hepatoma cell line was obtained from ATCC. Cells were cultured in 175 cm^2 tissue culture flask or seeded in 96-well plate with (high serum content, 10% fetal bovine serum and 10% calf serum) culture medium and maintained at 37° C. and 5% CO2 throughout study. Twenty-four hours after the initial seeding of the 96-well plate by hand (approximate 100,000/well), the HD gene induction assay was initiated. Media was removed and replaced with 100 ul of low serum culture media (5% charcoal/dextran treated calf serum) containing vehicle (DMSO) or test compounds or standard. Cells returned to incubator for 24 hours culture. At the termination of the challenge, 50 ul lysis buffer with HD gene specific CE, LE, BL probes was added directly into each well to initiate the is bDNA HD mRNA assay. The branched DNA assay was performed according to the manufacturer's protocol (Bayer Diagnostics; Emeryville. Calif.). At the end of the assay, the luminescence was quantitated in Dynex MLX microtiter plate luminometer. EC50's were determined by non-linear regression with a sigmoidal fit utilizing Graphpad Prism.

PPARδ = target: T3, PPARδ (Homo sapiens, UniProt Q03181); test: Transfection Assay for PPARδ Receptors (PPAR-Gal4 receptor / Gal4-Luciferase Reporter, HEK293 cells); format: cell-based; conditions: bracketed values
T3 sequence (Q03181 171-441 limits assumed): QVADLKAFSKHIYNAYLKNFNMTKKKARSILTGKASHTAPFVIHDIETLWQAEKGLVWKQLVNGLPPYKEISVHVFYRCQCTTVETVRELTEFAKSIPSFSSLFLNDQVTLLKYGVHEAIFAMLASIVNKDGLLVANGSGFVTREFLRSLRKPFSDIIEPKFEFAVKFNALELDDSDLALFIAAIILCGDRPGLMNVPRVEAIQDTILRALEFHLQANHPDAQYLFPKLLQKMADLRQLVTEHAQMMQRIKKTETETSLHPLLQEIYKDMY
Protocol: Transfection Assay for PPARδ Receptors
HEK293 cells were grown in DMEM/F-12 Media supplemented with 10% FBS and glutamine (GIBCOBRL). The cells were co-transfected with DNA for PPAR-Gal4 receptor and Gal4-Luciferase Reporter using the DMRIE-C Reagent. On the following day, the DNA-containing medium were replaced with 5% Charcoal treated FBS growth medium. After six hours, cells were seeded in 96 well plate and incubated at 37° C. in CO2 incubator overnight. Cells were challenged by test compounds and incubated for 24 hours at 37° C. in 5% CO2 incubator. Luciferase activity was assayed using the Steady-Glo Luciferase Assay Kit from Promega. DMRIE-C Reagent was purchased from GIBCO Cat. No. 10459-014. OPTI-MEM I Reduced Serum Medium was purchased from GIBCO Cat. No. 31985. Steady-Glo Luciferase Assay Kit was obtained from Promega Part# E254B.

[1] = Comparison of activity of (R) and (S) isomer (test not stated); conditions: chiral center on C-2 of the indane ring
Description: Unless otherwise mentioned or indicated, the chemical designation of compounds denotes the mixture of all possible stereochemically isomeric forms, said mixtures containing all diastereomers and enantiomers of the basic molecular structure. More in particular, stereogenic centers may have the (R)- or (S)-configuration; substituents on bivalent cyclic saturated radicals may have either the cis- or trans-configuration. The invention encompasses stereochemically isomeric forms including diastereoisomers, as well as mixtures thereof in any proportion of the disclosed compounds. The disclosed compounds may also exist in their tautomeric forms. Such forms although not explicitly indicated in the above and following formulae are intended to be included within the scope of the present invention. For example, in compound 2.1 or Example 3, there is a chiral center on the C-2 of the indane ring.

CCN(C(=O)Nc1ccc(OC(F)(F)F)cc1)[C@@H]1Cc2ccc(SC(C)(C)C(=O)O)cc2C1 [Example 3, (R)-2-{2-[1-Ethyl-3-(4-trifluoromethoxyphenyl)ureido]indan-5-ylsulfanyl}-2-methylpropionic acid]
EC50 (PPARγ): > 10 µM | pEC50 (PPARα): 8.10 | EC50 (PPARδ): > 10 µM | activity of the (R) isomer relative to the (S) isomer [1]: more active than the (S) isomer
